Results as given in patent publication US9226918B2, “Methods and compositions for treating or preventing narcotic withdrawal symptoms” (The Board of Trustees of the Leland Stanford Junior …, priority 2008, dated 2016).
“Also recorded” adds a separate entry of the source.

Tests used:
Type in all cases: in vivo
male volunteers = experiment: Naloxone-induced withdrawal in human volunteers, palonosetron alone or with hydroxyzine; settings: palonosetron 0.75 mg IV alone, 12 male volunteers
Protocol: In these studies, palonosetron (a 5-HT3 antagonist) was administered alone, or in combination with a clinically available antihistamine (hydroxyzine) to human volunteers.

C57BL/6J mice [1] = experiment: Conditioned place preference (CPP) associated with morphine
Protocol: The CPP experiments were performed using Place Preference System (MED Associates Inc., St. Albans, Vt.), which consists of three compartments; two outer compartments for active association and a middle neutral compartment. One association compartment is constructed of white opaque plastic walls with a floor made of metal rods while the other compartment is made of black opaque plastic walls with a metal mesh floor. The smaller middle neutral compartment is made of gray opaque plastic walls and floor. Experiments were conducted in a dimly lit room with homogenous lighting (˜20 lux). The place preference apparatus is equipped with motion photo-sensors with data recorded via a computer running MED PC software (MED Associates Inc, Vt.). C57B1/6J mice (8 to 12 weeks old) were used in all experiments, which were carried out during the second half of the light phase between 13:00-18:00 hr. On Day 0, the mice were acclimated to the test room and the time spent in each compartment was recorded (pre-conditioning report). Any mouse that spent more than 75% of the time in either of the association compartments was excluded. On the following day each mouse was randomized to a control or drug group and assigned to either the white or black association compartments in a counter-balanced fashion (n=10-15 per group). […] Twenty-five minutes after injection(s), each mouse was placed into its assigned association compartment for 25 min without access to the other compartments. On Days 2, 4 and 6, the mice received saline injections and were placed in the alternative compartment after 25 min. On Day 7, mice were placed in the middle neutral compartment of the place preference apparatus with full access to the other two compartments and assessed for the length of time spent in each compartment (post-conditioning report). The percentage of time spent in each association compartment was calculated relative to the total time spent in both association compartments.

morphine-dependent mice = experiment: Naloxone-precipitated withdrawal jumping in morphine-dependent mice
Protocol: After naloxone administration, mice were placed in clear plastic cylinders (10 cm in diameter and 40 cm in height, and the number of jumps during the following 15 minutes were counted. Naloxone precipitated jumping behavior is a robust response reflecting physical dependence on opioids observed across strains of inbred mice (Kest, B., et al., Neuroscience 2002. 115(2): 463-469).
(§1) In some experiments the selective 5-HT3 antagonist ondansetron (Sigma) was administered. For systemic administration, ondansetron was injected subcutaneously in […] of 0.9% NaCl to some groups of mice. […] For intracerebroventricular (i.c.v.) administration, mice were briefly anesthetized with inhaled isoflurane. A 30 gauge ½ inch needle was used to pierce the skull and enter the ventricles using an approach described previously (Pedigo, N. W. et al. J Pharmacol Exp Ther, 1975. 193(3): p. 845-852). Once inserted, 5 μl of injectate was slowly administered using a microsyringe, and the animals were used within 20 minutes after the injection.

C57BL/6J mice [2] = experiment: Opioid dependence related hyperalgesia, mechanical nociceptive threshold (von Frey filaments)
Protocol: as §1
In these experiments, mice were placed on wire mesh platforms in clear cylindrical plastic cylinders. After 15 minutes of acclimation, fibers of sequentially increasing stiffness were applied to the plantar surface of one hind paw, pressed upward to cause a slight bend in the fiber and left in place 5 sec. Withdrawal of the hind paw from the fiber was scored as a response. When no response was obtained the next stiffest fiber in the series was applied to the same paw; if a response was obtained a less stiff fiber was applied. Testing proceeded in this manner until 4 fibers had been applied after the first one causing a withdrawal response allowing the estimation of the mechanical withdrawal threshold (Poree, L. R., et al., Anesth Analg, 1998. 87(4): p. 941-948).

Htr3b mRNA = Htr3b mRNA expression in brain after chronic morphine (specificity control); settings: brain tissue, four days of morphine versus saline, C57Bl/6J and 129/SvlmJ mice
healthy male volunteers = experiment: Acute naloxone-precipitated opioid withdrawal in human volunteers after ondansetron pretreatment (OOWS, SOWS)
Text: Eight healthy male volunteers underwent an acute precipitated narcotic drug withdrawal protocol as previously described (Compton, P., et al., Pharmacol Biochem Behav, 2004. 77(2): p. 263-268) with or without ondansetron pretreatment using a randomized double-blinded placebo-controlled crossover study design on two separate occasions. Test sessions for each individual subject were separated by at least seven days. Female volunteers were excluded from the study due to modulation of opioid response by menstruation cycles (Hoehe, M., Psychoneuroendocrinology, 1988. 13(4): p. 339-344). The human experimental protocol was approved by the Institutional Review Board (Stanford University). Each volunteer provided written informed consent prior to study enrollment, and the study was registered in the clinicaltrials.gov database (identifier NCT00661674).
All study sessions were conducted by a blinded research assistant (ND) and supervised by an un-blinded physician (LC) who administered the study medication and monitored heart rate, blood pressure and arterial oxygenation throughout the study. The subjective opioid withdrawal scale (SOWS) and objective opioid withdrawal scale (OOWS) were completed after establishing intravenous access and before administration of study medications, as originally described by Handelsman et al (Handelsman, L., et al., Am J Drug Alcohol Abuse, 1987. 13(3): p. 293-308). All OOWS measurements were obtained by the same blinded research assistant (ND). Ondansetron (Bedford Laboratories, Bedford, Ohio) 8 mg or placebo (0.9% saline solution, Hospira Inc., Lake Forest, Ill.) was administered in a double-blinded fashion as an IV bolus. […] Patients remained in the lab under observation for 105 minutes and were offered music or video entertainment and caffeine-free meals or snacks ad lib during this period of time. After 105 minutes, the patient's vital signs and OOWS and SOWS were reassessed. […] Vital signs, SOWS and OOWS were administered five minutes and fifteen minutes after the naloxone administration.
Animal behavioral data was analyzed using one or two-way ANOVA with post-hoc Tukey testing or, for conditioned place preference data with t-testing. The outcome measures of interest between the placebo- and ondansetron-treated groups were compared using paired t test and the Wilcoxon Signed Rank test where appropriate. Normal distribution was determined using QQ plots and the Kolmogorov-Smirnov test. Analyses were performed with SAS 9.1 statistical package (Cary, Ill.) with p<0.05 considered statistically significant.

[3] = ondansetron 8 mg IV 30 minutes prior to morphine 10 mg/70 kg IV, naloxone 120 minutes after morphine, versus placebo

O=C1c2cccc3c2[C@H](CCC3)CN1[C@@H]1CN2CCC1CC2 [palonosetron]
naloxone-induced withdrawal symptoms relative to placebo control (male volunteers): reduced the naloxone-induced withdrawal symptoms

CN1CC[C@]23c4c5ccc(O)c4O[C@H]2[C@@H](O)C=C[C@H]3[C@H]1C5 [morphine]
mean difference between pre and post conditioning percentage of time spent in the compartment associated with drug (C57BL/6J mice [1]; morphine 5 mg/kg i.p., placed in conditioning chamber 25 min after injection): 21.29%
jumps in the 15 minute period following naloxone administration (morphine-dependent mice; BUB/BnJ mice made dependent on morphine over a 4-day period): over 100
jumps in the 15 minute period following naloxone administration (morphine-dependent mice; SM/J mice made dependent on morphine over a 4-day period): one
hyperalgesia after chronic morphine treatment (C57BL/6J mice [2]; C57BL/6J mice, four day morphine protocol): caused hyperalgesia
expression of the Htr3b gene (Htr3b mRNA): not altered

Cc1nccn1CC1CCc2c(c3ccccc3n2C)C1=O (stereo not drawn) [ondansetron]
mean difference between pre and post conditioning percentage of time spent in the compartment associated with drug (C57BL/6J mice [1]; ondansetron 1 mg/kg in addition to morphine 5 mg/kg, i.p.): 0.40%
place preference associated with morphine administration (C57BL/6J mice [1]; ondansetron 1 mg/kg plus morphine 5 mg/kg): completely blocked
naloxone-precipitated withdrawal response (morphine-dependent mice; C57BL/6J mice, ondansetron 1 mg/kg with each morphine dose during 4-day protocol, tested 18 hours after final dose (FIG. 3B)): diminished the naloxone-precipitated withdrawal response
inhibition of naloxone-precipitated withdrawal (morphine-dependent mice; morphine-dependent C57BL/6J mice, ondansetron 1 mg/kg given acutely): not able to effectively inhibit withdrawal
naloxone-precipitated jumping behavior (morphine-dependent mice; morphine-dependent C57BL/6J mice, ondansetron i.c.v. before naloxone (FIG. 3C)): profoundly blocked; also recorded: statistically significant and dose-dependent reduction
naloxone-induced jumping (morphine-dependent mice; morphine-dependent C57BL/6J mice, ondansetron s.c. once, range of doses, 30 minutes prior to testing (FIG. 3A)): significantly reduced; also recorded: statistically significant and dose-dependent reduction
pain sensitivity / baseline nociceptive thresholds (C57BL/6J mice [2]; control mice not treated with morphine, ondansetron 30 minutes prior to threshold assessment): no effect on pain sensitivity; also recorded: did not alter baseline nociceptive thresholds
hyperalgesia (mechanical nociceptive sensitization) during morphine abstinence (C57BL/6J mice [2]; morphine-dependent mice, 18 hours after last morphine dose, ondansetron 30 minutes prior to threshold assessment (FIG. 4)): reversed the hyperalgesia; also recorded: dose-dependently reversed
decrease in mean OOWS score (healthy male volunteers; [3]): 76.4%±22.6
mean decrease in the subjective symptoms (SOWS score) (healthy male volunteers; [3]): 4.1%±62.5
individual OOWS signs manifested by the volunteers (healthy male volunteers; ondansetron 8 mg IV pre-treatment, 12 of the 13 measured signs manifested): decreased all 12 of these individual signs
objective signs of opioid withdrawal in affected subjects (healthy male volunteers; ondansetron 8 mg IV pre-treatment, seven of 8 subjects developed signs): reduced these signs in all seven affected individuals
